Experimental data taken from US9951060B2, “2-acylaminothiazole derivative or salt thereof” (ASTELLAS PHARMA INC., priority 2014, dated 2018).
Structures can show the parent of a compound that is named as a salt.

Experiments:
[1] = target: human muscarinic M3 receptor (Homo sapiens, UniProt P20309)
Text: Test Example 1: Evaluation of Muscarinic M3 Receptor Positive Allosteric Modulator Activity
a) Construction of Vector Expressing Human Muscarinic M3 Receptor
A human muscarinic M3 receptor gene (GenBank Accession No.: NM_000740.2) was introduced into an expression vector pcDNA3.1™ (Life Technologies).
b) Construction of Cells Stably Expressing Human Muscarinic M3 Receptor
A vector expressing a human muscarinic M3 receptor was introduced into a CHO—K1 cell (ATCC No.: CCL-61). The introduction was carried out according to the attached instructions, using a transfection reagent, Lipofectoamine (registered trademark) 2000 Reagent (Life Technologies). The cells were incubated in an alpha Modified Eagle Minimum Essential Medium (α-MEM) including 2 mM glutamine, 10% fetal bovine serum, and 2.0 mg/mL Geneticin (registered trademark) (Life Technologies) for 4 weeks to acquire a drug-resistant clone.
c) Measurement of Intracellular Ca^2+ Concentration
The cells obtained in b) above were suspended in an α-MEM including 2 mM glutamine, 10% fetal bovine serum, and 0.2 mg/mL Geneticin (registered trademark) to the amount from 1.2 to 1.5×10^4 cells/well the day before the experiment, dispensed into a 384-well plate (Model No. 355962, BD Biosciences), and incubated overnight at 37° C. and 5% CO2. The medium was replaced with a loading buffer (an assay buffer (Hank's balanced salt solution (HBSS), 1 g/L BSA, 20 mM HEPES (pH 7.5), and 2.5 mM probenecid), including 3.1 μM Fluo 4-AM (Dojindo Laboratories) and incubated for about 2 hours at room temperature. Thereafter, the cells were washed with a plate washer ELx405™ (BIO-TEK Instrument, Inc.) set with the assay buffer, and set in an intracellular Ca^2+ concentration measuring system (FLIPR^tetra (registered trademark), Molecular Device Co.). The test substances (final concentration of 1 μM or 10 μM) and carbachol (Sigma, final concentration of 0.0024 nM to 10 μM) which had each been dissolved in the assay buffer in advance were set in a FLIPR^tetra (registered trademark). The test substances were added to the cells in the device and after about 5 minutes, carbachol was added to the cells. An increase rate of the intracellular Ca^2+ concentration by carbachol was measured (excitement wavelength of 470 nm to 495 nm and a fluorescence wavelength of 515 nm to 575 nm).
For the muscarinic M3 receptor-positive allosteric modulator activity, a shift toward a lower concentration side of a carbachol concentration-response curve by the test substance was used as an index. […] For example, when the EC50 value of carbachol in the absence of the test substance was 0.1 μM and the EC50 value of carbachol in the presence of the test substance was 0.01 μM, the value of the muscarinic M3 receptor-positive allosteric modulator activity becomes 10, showing that the test substance causes a 10-fold shift in the EC50 value toward to the low concentration side.

[2] = target: T1, human c-Mpl-introduced Ba/F3 cell (Homo sapiens, UniProt P40238); test: Test Example 2: human c-Mpl-introduced Ba/F3 cell proliferative activity; assay type: cell-based; conditions: concentration exhibiting 30% proliferation; 100% = positive control (Example 315 of Patent Document 1) at 1 μM
T1 construct: expressed in transfected cells
T1 sequence (P40238 26-635): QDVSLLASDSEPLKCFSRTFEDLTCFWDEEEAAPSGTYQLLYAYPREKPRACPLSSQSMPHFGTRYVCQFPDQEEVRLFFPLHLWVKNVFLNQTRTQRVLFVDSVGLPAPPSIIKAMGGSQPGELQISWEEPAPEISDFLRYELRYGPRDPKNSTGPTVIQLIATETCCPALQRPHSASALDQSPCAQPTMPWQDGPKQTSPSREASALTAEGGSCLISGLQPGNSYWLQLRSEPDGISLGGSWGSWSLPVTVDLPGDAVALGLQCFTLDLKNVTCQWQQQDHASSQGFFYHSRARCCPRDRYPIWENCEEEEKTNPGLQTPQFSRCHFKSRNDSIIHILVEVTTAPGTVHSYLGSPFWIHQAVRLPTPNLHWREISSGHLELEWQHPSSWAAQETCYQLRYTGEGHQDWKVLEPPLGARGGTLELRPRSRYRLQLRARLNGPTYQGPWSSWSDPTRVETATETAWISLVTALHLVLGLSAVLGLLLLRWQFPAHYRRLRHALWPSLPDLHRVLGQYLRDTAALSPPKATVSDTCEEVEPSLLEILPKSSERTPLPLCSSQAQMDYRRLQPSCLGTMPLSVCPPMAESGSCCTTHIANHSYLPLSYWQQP
Summary of the method: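 Ba/F3 cells stably expressing human c-Mpl seeded at 1×10^4 cells/well with test substance (100 nM to 10 μM final) in RPMI-1640/10% FBS, overnight at 37 °C. Cell number by WST-type kit absorbance at 450 nm after ~5 h; proliferation % relative to untreated (0%) and reference agonist at 1 μM (100%).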

rat isolated bladder = test: Test Example 3: effect on electrical field stimulation-induced contraction in rat isolated bladder; conditions: 10 μM test substance; AUC of contraction, value before treatment = 100%; SD female rat bladder
Method: Test Example 3: Effect on Electrical Field Stimulation-Induced Contraction in Rat Isolated Bladder
As an effect on the nerve stimulation-dependent bladder contraction in in vitro, the effect of the Example compounds of the present invention in the electrical field stimulation-induced contraction of the rat isolated bladder was measured by the following method. That is, a bladder specimen having a width of about 2 mm and a length of about 10 mm in the longitudinal direction from the bladder isolated from a Sprague-Dawley (SD) female rat (Japan SLC, Inc.) was prepared. The prepared bladder specimen was suspended in an organ bath filled with 10 mL of a Krebs-Henseleite solution. The Krebs-Henseleite solution was aerated at 95% 02 and 5% CO2, and kept at 37° C. After carrying out stabilization at an initial tension of 1 g, the contraction was caused twice with 60 mM KCl. After stabilization of the specimen with a Krebs-Henseleite solution, the contraction was caused by carrying out electrical field stimulation at 20 V with an electrical stimulation device (Nihon Kohden) (a stimulation frequency of 8 Hz, a pulse width of 0.3 msec, and a stimulation time of 10 seconds). By repeating the transmural electrical stimulation at an interval of 2 minutes, a voltage was adjusted to obtain a contraction height of approximately 50% of the contractile response at 20 V. After the contraction by electrical field stimulation had been stabilized, 10 μL of the test substances dissolved in 100% dimethyl sulfoxide in advance (final concentrations of 3 μM, 10 μM, and 30 μM) was added thereto. The test substances were cumulatively administered at the following concentrations after the low-concentration contractile response had been stabilized. The response was taken into a personal computer through a PowerLab (registered trademark) (AD Instruments, Inc.), and analyzed by LabChart (registered trademark) (AD Instruments, Inc.). When the area under the response (area under curve, AUC) in each contraction response was calculated and the value before treatment with the test substance was taken as 100%, the enhancement rate (% of pre) of the isolated bladder contractions after treatment with the test substance was calculated.

human muscarinic M3 receptor, sequence (P20309 whole entry): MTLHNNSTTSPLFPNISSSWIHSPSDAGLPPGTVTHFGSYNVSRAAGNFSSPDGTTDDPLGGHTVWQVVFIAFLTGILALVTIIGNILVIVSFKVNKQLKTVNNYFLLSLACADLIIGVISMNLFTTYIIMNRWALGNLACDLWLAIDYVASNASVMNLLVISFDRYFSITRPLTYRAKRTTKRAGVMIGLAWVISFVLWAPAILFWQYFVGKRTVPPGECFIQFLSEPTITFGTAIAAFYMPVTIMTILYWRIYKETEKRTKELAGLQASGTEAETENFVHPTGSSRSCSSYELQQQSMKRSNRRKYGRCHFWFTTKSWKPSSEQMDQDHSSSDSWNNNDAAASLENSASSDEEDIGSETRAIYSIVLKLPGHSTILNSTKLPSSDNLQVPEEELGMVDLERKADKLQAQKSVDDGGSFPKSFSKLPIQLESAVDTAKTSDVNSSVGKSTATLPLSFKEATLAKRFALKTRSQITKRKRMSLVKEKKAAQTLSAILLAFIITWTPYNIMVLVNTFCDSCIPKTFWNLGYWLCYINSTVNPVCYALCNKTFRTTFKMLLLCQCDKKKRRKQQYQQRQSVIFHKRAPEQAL

| muscarinic M3 receptor-positive allosteric modulator activity, 1 μM (-fold shift) [1] | muscarinic M3 receptor-positive allosteric modulator activity, 10 μM (-fold shift) [1] | human c-Mpl-introduced Ba/F3 cell proliferative activity EC30 [2] | Structure (SMILES) | Enhancement rate (% of pre) of isolated bladder contractions (rat isolated bladder) |
| --- | --- | --- | --- | --- |
| 33 -fold shift | 226 -fold shift | >10 µM | C[C@@H]1CCCN1Cc1sc(NC(=O)c2cnc(N3CCN(CCC(=O)O)CC3)cn2)nc1-c1cc(Cl)cc(C(F)(F)F)c1 [Example 11] | 123 % of pre |
| 25 -fold shift | 149 -fold shift | >10 µM | C[C@@H]1CCCN1Cc1sc(NC(=O)c2cnc(N3CCN(CCCC(=O)O)CC3)cn2)nc1-c1cc(F)cc(C(F)(F)F)c1 [Example 21] | 141 % of pre |
| 67 -fold shift | 224 -fold shift | >10 µM | C[C@@H]1CCCN1Cc1sc(NC(=O)c2cnc(N3CCN(CCC(=O)O)CC3)cn2)nc1-c1cc(F)cc(C(F)(F)F)c1 [Example 49] | 153 % of pre |
| 28 -fold shift | 158 -fold shift | >10 µM | C[C@@H]1CCCN1Cc1sc(NC(=O)c2cnc(N3CCN(CCC(=O)O)C[C@H]3C)cn2)nc1-c1cc(F)cc(C(F)(F)F)c1 [Example 140] | 161 % of pre |
| 110 -fold shift | 503 -fold shift | >10 µM | C[C@@H]1CC[C@@H](C)N1Cc1sc(NC(=O)c2cnc(N3CCN(CCC(=O)O)CC3)cn2)nc1-c1cc(F)cc(C(F)(F)F)c1 [Example 119] | 154 % of pre |
| 30 -fold shift | 191 -fold shift | >10 µM | CCN(CC)Cc1sc(NC(=O)c2cnc(N3CCN(CCC(=O)O)CC3)cn2)nc1-c1cc(F)cc(C(F)(F)F)c1 [Example 109] | 183 % of pre |
| 36 -fold shift | 196 -fold shift | >10 µM | COc1cc(-c2nc(NC(=O)c3cnc(N4CCN(CCC(=O)O)CC4)cn3)sc2CN2CCC[C@H]2C)cc(C(F)(F)F)c1 [Example 52] | 132 % of pre |

Second part, the compound before the results:

| Structure (SMILES) | muscarinic M3 receptor-positive allosteric modulator activity, 1 μM (-fold shift) [1] | muscarinic M3 receptor-positive allosteric modulator activity, 10 μM (-fold shift) [1] | human c-Mpl-introduced Ba/F3 cell proliferative activity EC30 [2] | Enhancement rate (% of pre) of isolated bladder contractions (rat isolated bladder) |
| --- | --- | --- | --- | --- |
| CC[C@@H]1CCCN1Cc1sc(NC(=O)c2cnc(N3CCN(CCC(=O)O)[C@H](C)C3)cn2)nc1-c1cc(Cl)cs1 [Example 143] | 65 -fold shift | 81 -fold shift | 7.8 µM | 140 % of pre |
| CCOc1ccc(-c2nc(NC(=O)c3cnc(N4CCN(CCC(=O)O)C[C@H]4C)cn3)sc2CN2CCC[C@H]2CC)cc1C(F)(F)F [Example 133] | 30 -fold shift | 164 -fold shift | >10 µM | 151 % of pre |
| COc1ccc(-c2nc(NC(=O)c3cnc(N4CCN(CCC(=O)O)[C@@H](C)C4)cn3)sc2CN2CCC[C@H]2C)cc1C(F)(F)F [Example 10] | 21 -fold shift | 87 -fold shift | >10 µM | 161 % of pre |
| C[C@@H]1CCCN1Cc1sc(NC(=O)c2cnc(N3CCN(CCC(=O)O)CC3)cn2)nc1-c1ccc(Cl)c(C(F)(F)F)c1 [Example 15] | 31 -fold shift | 159 -fold shift | >10 µM | 124 % of pre |
| CC[C@@H]1CCCN1Cc1sc(NC(=O)c2cnc(N3CCN(CCC(=O)O)CC3)cn2)nc1-c1cccc(C(F)(F)F)c1 [Example 65] | 24 -fold shift | 90 -fold shift | >10 µM | 127 % of pre |
| Cc1cc(OC(F)(F)F)cc(-c2nc(NC(=O)c3cnc(N4CCN(C(C)C(=O)O)CC4)cn3)sc2CN2CCC[C@H]2C)c1 (stereo partly drawn) [Example 48] | 27 -fold shift | 113 -fold shift | >10 µM | 143 % of pre |
| C[C@@H]1CCCN1Cc1sc(NC(=O)c2cnc(N3CCN(CC(=O)O)C[C@H]3C)cn2)nc1-c1cc(F)cc(C(F)(F)F)c1 [Example 141] | 45 -fold shift | 159 -fold shift | >10 µM | 121 % of pre |
| CC(C(=O)O)N1CCN(c2cnc(C(=O)Nc3nc(-c4cc(F)cc(C(F)(F)F)c4)c(CN4CCC[C@H]4C)s3)cn2)CC1 (stereo partly drawn) [Example 64] | 23 -fold shift | 128 -fold shift | >10 µM | 162 % of pre |
| C[C@@H]1CCCN1Cc1sc(NC(=O)c2cnc(N3CCN(CCC(=O)O)CC3)cn2)nc1-c1cc(Cl)cs1 [Example 82] | 11 -fold shift | 43 -fold shift | >10 µM | 158 % of pre |
| C[C@@H]1CCCN1Cc1sc(NC(=O)c2cnc(N3CCN(CCC(=O)O)CC3)cn2)nc1-c1cc(Cl)cs1 [Example 50] | 108 -fold shift | 190 -fold shift | 2.3 µM | 183 % of pre |
| C[C@@H]1CCCN1Cc1sc(NC(=O)c2cnc(N3CCN(CCC(=O)O)C[C@H]3C)cn2)nc1-c1cc(C(F)(F)F)cs1 [Example 3, 3-[(3R)-3-methyl-4-{5-[(5-{[(2R)-2-methylpyrrolidin-1-yl]methyl}-4-[4-(trifluoromethyl)thiophen-2-yl]-1,3-thiazol-2-yl)carbamoyl]pyrazin-2-yl}piperazin-1-yl]propanoic acid dihydrochloride] | 101 -fold shift | 253 -fold shift | 0.78 µM | 152 % of pre |
